Results as given in patent US9284283B2, “Macrocyclic compounds for modulating IL-17” (ENSEMBLE THERAPEUTICS CORPORATION, priority 2012, dated 2016).

Experiments:
[1] = tested on: IL-17-induced GROα secretion from HT-29 cells; experiment: HT-29 cellular assay (IL-17-induced GROα secretion); type: cell-based; details: Homo sapiens
Procedure: To test the ability of a compound of the invention to neutralize or antagonize IL-17 bioactivity, the following cell-based assay was used. IL-17 can stimulate epithelial cells and other cells to secrete GROα. The ability of a compound of the invention to neutralize IL-17-induced GROα secretion from the human colorectal adenocarcinoma epithelial cell line HT-29 is tested in this assay.
HT-29 cells (human colorectal adenocarcinoma epithelial cells, ATCC #HTB-38), were maintained in culture/assay medium in tissue culture-treated flasks using standard techniques. HT-29 cells were grown in tissue culture flasks until they were 50-80% confluent on the day before the assay. The day before the assay, the cells were detached from the culture flasks with trypsin+EDTA. The trypsin was inactivated with complete assay medium. HT-29 cells were then centrifuged at 500×g for 5 minutes at room temperature. The cell pellet was then re-suspended in Defined Keratinocyte SFM (Invitrogen #10766019)+10% FCS and 50,000 HT-29 cells (in 100 μl) were added to each treatment well of the 96-well plates. The 96-well plates were placed in a tissue culture incubator (37° C., 5% CO2) overnight. The next day, the media was removed from the cells and the cells were washed twice with Defined Keratinocyte SFM. In a separate 96-well plate, compounds to be tested were serially diluted in Defined Keratinocyte SFM and run in triplicate in 100 μL total volume. To these compound samples were then added 100 μL of human IL-17 at a concentration of 20 ng/mL in Defined Keratinocyte SFM for serum-free assays. 150 μL of the compound/IL-17 mixture was then added to the cells from which the media has previously been removed. The cells were grown for 48 hours in Defined Keratinocyte SFM in a tissue culture incubator (37° C., 5% CO2).
At the end of the incubation, the plates are centrifuged (500×g for 5 minutes at room temperature), and the cell culture media is transferred to polypropylene 96-well plates. The supernatant was used neat in the ELISA. GROα levels are measured with a GROα sandwich ELISA (R+D Systems DuoSet #DY275E), as per the manufacturer's instructions. The ELISA plates were previously coated with mAb 275 (R+D Systems) at 4 μg/mL. GROα is detected using biotinylated goat anti-human GROα (R+D Systems BAF275) at 200 ng/mL using TMB as a substrate. At the end of the ELISA reactions, plates are read at 450 nm on a microplate reader and compared to a standard calibration curve.

[2] = target: T1, recombinant human IL17a (binding to its receptor IL17R) (Homo sapiens, UniProt Q16552); experiment: IL-17 competition ELISA I (IL17a coated, IL17R/Fc binding)
T1 construct: purchased R&D Systems 317-ILB (IL17a); 177-IR (IL17R/Fc)
T1 sequence (Q16552 20-155 limits assumed): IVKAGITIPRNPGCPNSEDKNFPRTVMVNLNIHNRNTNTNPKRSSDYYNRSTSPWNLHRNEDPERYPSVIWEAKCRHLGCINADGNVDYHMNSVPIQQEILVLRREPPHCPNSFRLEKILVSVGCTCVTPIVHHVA
Outline: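 Plates coated with 20 nM recombinant human IL17a received compound dilutions and 12 nM IL17R/Fc (final) for 30 min at room temperature. Bound receptor was detected with HRP anti-human Fc and TMB, read at 450 nm. IC50 came from a 4-parameter logistic fit between no-competitor and blank controls.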

IL17A = target: T2, IL17A (Homo sapiens, UniProt Q16552); experiment: Surface Plasmon Resonance (SPR) analysis of compound interactions with IL17A; details: SPR binding to IL17A
T2 sequence (Q16552 24-155): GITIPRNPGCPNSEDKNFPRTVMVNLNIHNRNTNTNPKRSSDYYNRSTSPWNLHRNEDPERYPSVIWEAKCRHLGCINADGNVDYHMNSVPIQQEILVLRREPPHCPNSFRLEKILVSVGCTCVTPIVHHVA
Outline: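 His-tagged IL17A captured on a Ni-NTA chip; five 2- or 3-fold compound dilutions from 50 μM injected for 180 s, 120 s dissociation, in HEPES-saline buffer with 0.5% DMSO. Baseline-subtracted sensorgrams fitted 1:1 for ka, kd and KD; Kd also derived from binding extent per concentration.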

[3] = tested on: IL-17A induced secretion of IL-6 in primary human RASF cells; experiment: Inhibition of IL17A induced secretion of IL6 in human rheumatoid arthritis synovial fibroblast (RASF) cells; type: cell-based; details: Homo sapiens, Fibroblast
Outline: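 Primary RASF cells (passage 2-8) stimulated 20 h at 37 °C with rhIL-17A (30 ng/mL) pre-incubated 1 h with compound (final 0.03-25 μM, 0.25% DMSO). Supernatant IL-6 measured by ELISA, normalized to WST1 viability; triplicates.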

[4] = target: T3, biotinylated human IL-17 (binding to IL17R/Fc) (Homo sapiens, UniProt Q16552); experiment: IL-17 competition ELISA II (captured IL17R/Fc, biotinylated IL-17)
T3 construct: purchased R&D Systems 317-ILB (IL-17, biotinylated); 177-IR (IL17R/Fc)
T3 sequence (Q16552 20-155 limits assumed): T1 sequence (Q16552 20-155 limits assumed)
Outline: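 Competition read-out: absorbance at 450 nm after streptavidin-HRP/TMB detection, fitted to a 4-parameter logistic model bounded by no-competitor and blank wells to give IC50. Compound was serially diluted 5-fold from 1 μM alongside 20 nM (stock) biotinylated IL-17 on IL17R/Fc (10 nM) captured via goat anti-human IgG, 30 min at room temperature.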

DNFB-treated BALB/c mice = experiment: Murine model of delayed hypersensitivity (DNFB-induced ear edema); type: in vivo, mouse; details: po; for Reduction in edema (%): ear weight 24 h after DNFB challenge; for IFNγ Reduction (%) / IL6 Reduction (%) / CXCL1 Reduction (%): plasma
Procedure: We used a murine model of fluorodinitrobenzene (DNFB)-induced ear edema to test the anti-inflammatory activity of both orally dosed and intraperitoneally dosed exemplary compounds of the invention. BALB/c mice (Harlan Sprague-Dawley, Inc., male, 6-8 weeks old) were topically treated on their shaved abdomen with 30 μL of 0.5% 1-fluoro-2,4-dinitrobenzene (DNFB) (4:1 acetone:olive oil) once on Day 0 and once on Day 1.
For oral dosing (“PO”), exemplary compounds of the invention were either suspended at 3 mg/mL in 20% Cremophor EL (Sigma) (20:80; Cremophor:water) or dissolved at 1 mg/mL or 3 mg/mL in D-α-tocopherol polyethylene glycol 1000 succinate (TPGS; Sigma)/PEG-400/water (20:60:20). For intraperitoneal dosing (“IP”), exemplary compounds of the invention were dissolved in DMSO at a concentration of 5 mg/mL. On day 7, the test compound was administered (PO at either 10 mg/kg or 30 mg/kg; IP at 1, 3, or 10 mg/kg) to DNFB-treated mice. Commercially available anti-mouse IL-17A (BioLegend) administered intraperitoneally at 5 mg/kg in PBS was used as a positive control. Thirty minutes later, 20 μL of 0.2% DNFB was applied to the right ear of animals and vehicle ([…]:olive oil) was applied to the left ear. One and four hours after DNFB challenge, a subset of mice was exsanguinated and plasma prepared from the blood. Twenty-four hours after challenge, the remaining mice were euthanized, and their ears were removed and weighed to determine the amount of edema. Plasma was assayed for interleukin-6, TNF-α, CXCL1, and interferon-γ concentrations using commercially-available assays.

| IC50 [2] [nM] | Kd (IL17A) [nM] | SMILES | IC50 [3] [nM] | also measured |
| --- | --- | --- | --- | --- |
|  |  | COC(=O)[C@@H]1CCCCNC(=O)CCCNC(=O)[C@@H](Cc2ccc(NC(=O)[C@H](Cc3ccccc3Br)NC(=O)Cc3ccccc3)cc2)NC(=O)CC2(CCCC2)CC(=O)N1 [Compound 120] |  | IC50 [1]: 1000 to 10000 nM |
| < 100 | < 100 | CC(=O)N[C@@H](Cc1ccccc1Cl)C(=O)Nc1ccc(C[C@H]2NC(=O)CC3(CCCC3)CC(=O)NCCCCCNC(=O)CNC2=O)cc1 [Compound 153] | 1000 to 10000 |  |
|  | < 100 | O=C1CNC(=O)[C@@H](Cc2ccc(NC(=O)[C@H](Cc3ccccc3Cl)NC(=O)Cc3ccccc3)cc2)NC(=O)CC2(CCCC2)CC(=O)N(CCO)CCCCCN1 [Compound 168] | 1000 to 10000 |  |
| 100 to 1000 | < 100 | CC(=O)N[C@@H](Cc1ccccc1Cl)C(=O)Nc1ccc(C[C@H]2NC(=O)CC3(CCCC3)CC(=O)N(CCO)CCCCCNC(=O)CNC2=O)cc1 [Compound 169] | > 10000 |  |
| < 100 | < 100 | O=C1CNC(=O)[C@@H](Cc2ccc(NC(=O)[C@@H](NC(=O)Cc3ccc(O)cc3)C3CCCCC3)cc2)NC(=O)CC2(CCCC2)CC(=O)NCCCCCN1 [Compound 192] | 1000 to 10000 |  |
| 100 to 1000 | 100 to 1000 | O=C1CNC(=O)[C@@H](Cc2ccc(NC(=O)[C@H](Cc3ccccc3Cl)NC(=O)c3ccccn3)cc2)NC(=O)CC2(CCCC2)CC(=O)NCCCCCN1 [Compound 195] |  | IC50 [4]: < 100 nM |
| 100 to 1000 | < 100 | O=C1CNC(=O)[C@@H](Cc2ccc(NC(=O)[C@H](Cc3ccccc3Cl)NC(=O)c3cncnc3)cc2)NC(=O)CC2(CCCC2)CC(=O)NCCCCCN1 [Compound 201] | > 10000 |  |
| < 100 | < 100 | CC(C)(C)C(=O)N[C@@H](Cc1ccccc1Cl)C(=O)Nc1ccc(C[C@H]2NC(=O)CC3(CCCC3)CC(=O)NCCCCCNC(=O)CNC2=O)cc1 [Compound 206] | 1000 to 10000 |  |
| < 100 | < 100 | O=C1CNC(=O)[C@@H](Cc2ccc(NC(=O)[C@H](Cc3ccccc3Cl)NC(=O)Cc3ccccc3)cc2)NC(=O)CC2(CCCC2)CC(=O)NCCOCCN1 [Compound 209] | 1000 to 10000 |  |
| < 100 | < 100 | O=C1CNC(=O)[C@@H](Cc2ccc(NC(=O)[C@H](Cc3ccccc3Br)NC(=O)Cc3ccc(O)cc3)cc2)NC(=O)CC2(CCCC2)CC(=O)NCCCCCN1 [Compound 211] | 1000 to 10000 |  |
| < 100 | < 100 | O=C1CNC(=O)[C@@H](Cc2ccc(NC(=O)[C@H](Cc3ccccc3Cl)NC(=O)Cc3ccccc3O)cc2)NC(=O)CC2(CCCC2)CC(=O)NCCCCCN1 [Compound 216] | 1000 to 10000 |  |
| < 100 | < 100 | O=C1CNC(=O)[C@@H](Cc2ccc(NC(=O)[C@H](Cc3ccccc3Cl)NC(=O)Cc3ccccc3)cc2)NC(=O)CC2(CCCCC2)CC(=O)NCCCCCN1 [Compound 223] |  |  |
| 1000 to 10000 | 100 to 1000 | O=C1CNC(=O)[C@@H](Cc2ccc(NC(=O)[C@H](Cc3ccc(Cl)c(Cl)c3)NC(=O)Cc3ccccc3)cc2)NC(=O)CC2(CCCC2)CC(=O)OCCCCCN1 [Compound 224] |  |  |
| 1000 to 10000 | 100 to 1000 | O=C1CNC(=O)[C@@H](Cc2ccc(NC(=O)[C@H](Cc3ccc(Br)s3)NC(=O)Cc3ccccc3)cc2)NC(=O)CC2(CCCC2)CC(=O)OCCCCCN1 [Compound 225] |  |  |
| 100 to 1000 | < 100 | O=C1CNC(=O)[C@@H](Cc2ccc(NC(=O)[C@H](Cc3ccccc3Cl)NC(=O)c3ccc(F)cc3)cc2)NC(=O)CC2(CCCC2)CC(=O)NCCCCCN1 [Compound 227] | 1000 to 10000 |  |
| < 100 | < 100 | O=C1CNC(=O)[C@@H](Cc2ccc(NC(=O)[C@H](Cc3cccs3)NC(=O)Cc3ccccc3)cc2)NC(=O)CC2(CCCC2)CC(=O)NCCCCCN1 [Compound 228] |  |  |
| < 100 | < 100 | O=C1CNC(=O)[C@@H](Cc2ccc(NC(=O)[C@H](Cc3ccco3)NC(=O)Cc3ccccc3)cc2)NC(=O)CC2(CCCC2)CC(=O)NCCCCCN1 [Compound 230] |  |  |
| 1000 to 10000 | 100 to 1000 | O=C1CNC(=O)[C@@H](Cc2ccc(NC(=O)[C@H](Cc3cscn3)NC(=O)Cc3ccccc3)cc2)NC(=O)CC2(CCCC2)CC(=O)NCCCCCN1 [Compound 232] |  |  |
| 100 to 1000 | < 100 | O=C1CNC(=O)[C@@H](Cc2ccc(NC(=O)[C@H](Cc3csc4ccccc34)NC(=O)Cc3ccccc3)cc2)NC(=O)CC2(CCCC2)CC(=O)NCCCCCN1 [Compound 233] |  |  |
|  |  | COC(=O)N[C@@H](Cc1ccccc1Cl)C(=O)Nc1ccc(C[C@H]2NC(=O)CC3(CCCC3)CC(=O)NCCOCCOCCNC2=O)cc1 [Compound 465] |  | Reduction in edema (%) (DNFB-treated BALB/c mice; 30 mg/kg): 23.5%; IFNγ Reduction (%) (DNFB-treated BALB/c mice; 30 mg/kg): 47.4%; IL6 Reduction (%) (DNFB-treated BALB/c mice; 30 mg/kg): 42.5%; IC50 [4]: < 100 nM |
|  |  | O=C1CC2(CCCC2)CC(=O)N[C@H](Cc2ccc(NC(=O)[C@H](Cc3ccccc3Cl)NC(=O)C(F)(F)c3ccccc3)cc2)C(=O)NCCOCCOCCN1 [Compound 475] | 100 to 1000 | Reduction in edema (%) (DNFB-treated BALB/c mice; 10 mg/kg): 19.2%; CXCL1 Reduction (%) (DNFB-treated BALB/c mice; 10 mg/kg): 61.4%; IFNγ Reduction (%) (DNFB-treated BALB/c mice; 10 mg/kg): 11.3%; IL6 Reduction (%) (DNFB-treated BALB/c mice; 10 mg/kg): 29.7%; Reduction in edema (%) (DNFB-treated BALB/c mice; 30 mg/kg): 49.5%; CXCL1 Reduction (%) (DNFB-treated BALB/c mice; 30 mg/kg): 63.0%; IFNγ Reduction (%) (DNFB-treated BALB/c mice; 30 mg/kg): 45.0%; IL6 Reduction (%) (DNFB-treated BALB/c mice; 30 mg/kg): 51.9%; IC50 [4]: < 100 nM |

| SMILES | IC50 [2] [nM] | Kd (IL17A) [nM] | IC50 [3] [nM] | also measured |
| --- | --- | --- | --- | --- |
| CC[C@H](C)[C@H](NC(=O)Cc1ccccc1)C(=O)Nc1ccc(C[C@H]2NC(=O)CC3(CCCC3)CC(=O)N[C@H](C(=O)OC)CCCCNC(=O)CCCNC2=O)cc1 [Compound 122] | 1000 to 10000 | 1000 to 10000 | 1000 to 10000 |  |
